The record followed here is PubChem BioAssay (NCI).

Among the test systems are NCI-H226 lung; HOP-62 NSCLC; UACC-62 melanoma; SF-539 CNS; SN12C renal; SK-MEL-28 melanoma; ACHN renal; EKVX NSCLC; RPMI-8226 leukemia; HCT-15 colon.
Holding throughout (test): growth of human tumour cells (NCI), 48 h

Several values for one entry are separate records, joined by “and”; a condition that tells them apart may be missing. Equal values may be shown once.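 A five-concentration, 48-hour dose response in 96-well plates underlies each endpoint, interpolated linearly between surrounding concentrations. GI50 marks 50% less growth. Definition used: TGI = concentration required for complete inhibition of growth.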

`CC(C)(c1ccccc1)c1ccc(OC#N)cc1`: the TGI in the assay with NCI-H226 lung, in the assay with HOP-62 NSCLC, in the assay with UACC-62 melanoma, with SF-539 CNS, with SN12C renal and with SK-MEL-28 melanoma was greater than 100 µM in each case. Also, the TGI in the assay with ACHN renal was greater than 100 µM; in the assay on EKVX NSCLC it was greater than 100 µM; in the assay with RPMI-8226 leukemia, greater than 70.1 µM; in the assay with HCT-15 colon it was 31.3 µM.

Turning to `CN(Cc1cc(C(C)(C)C)cc(Br)c1O)Cc1cc(C(C)(C)C)cc(Br)c1O`, the TGI in the assay with NCI-H226 lung is 13.3 µM; with HOP-62 NSCLC, 15.5 µM; with UACC-62 melanoma, 12.8 µM; in the assay with SF-539 CNS, 7.66 µM; with SN12C renal it was 15.2 µM; in the assay with SK-MEL-28 melanoma it was 17.4 µM. In addition, the TGI in the assay with ACHN renal came out at 9.01 µM; in the assay on EKVX NSCLC, 12.7 µM; in the assay on RPMI-8226 leukemia, 6.79 µM; in the assay with HCT-15 colon, 12.1 µM.

Consider `COc1cc(Nc2ncc(F)c(Nc3ccc4c(n3)N(COP(=O)(O)O)C(=O)C(C)(C)O4)n2)cc(OC)c1OC`, for which the GI50 in the assay on NCI-H226 lung was 0.876 µM and 0.38 µM; with HOP-62 NSCLC it was 2.25 µM and 0.753 µM; in the assay with UACC-62 melanoma, 2.1 µM and 1.64 µM; with SF-539 CNS it was 0.605 µM and 0.454 µM; in the assay with SN12C renal it was 1.01 µM and 1.05 µM; with SK-MEL-28 melanoma, 3.69 µM and 5.05 µM. In addition, the GI50 in the assay on ACHN renal is 1.12 µM and 1.21 µM; with EKVX NSCLC it was 2.19 µM and 1.93 µM; in the assay with RPMI-8226 leukemia it was 3.55 µM and 4.34 µM; in the assay on HCT-15 colon, 2.45 µM and 3.22 µM. Also, the TGI in the assay on NCI-H226 lung is 4.78 µM and 2.32 µM; in the assay on HOP-62 NSCLC, 10.2 µM and 7.37 µM; in the assay with UACC-62 melanoma it was 12 µM and > 10 µM; in the assay on SF-539 CNS, 1.94 µM and 1.81 µM; in the assay with SN12C renal, 16.6 µM and > 10 µM; in the assay on SK-MEL-28 melanoma, 21 µM and > 10 µM. In addition, the TGI was 12.2 µM and > 10 µM in the assay on ACHN renal; 13.7 µM and > 10 µM in the assay on EKVX NSCLC; greater than 31.3 µM with RPMI-8226 leukemia; greater than 100 µM in the assay on HCT-15 colon.

For the molecule `Cn1cc2ccccc2c1-c1nc(F)nc(OCC(=O)[C@H]2CCC3[C@@H]4CCC5=CC(=O)CC[C@]5(C)C4[C@@H](O)C[C@@]32C)n1` (some centres undefined), the TGI in the assay with NCI-H226 lung is 36.5 µM; with HOP-62 NSCLC, 42.7 µM; in the assay with UACC-62 melanoma, 36.7 µM; in the assay with SF-539 CNS, 35.1 µM; with SN12C renal it was 30.8 µM; in the assay with SK-MEL-28 melanoma it was 31.2 µM. Further, the TGI in the assay with ACHN renal was found to be 32.6 µM; with EKVX NSCLC it was 58.8 µM; with RPMI-8226 leukemia, 21.3 µM; in the assay on HCT-15 colon, 20.7 µM.

Turning to `CC1OC(n2cc(F)c(=O)[nH]c2=O)C=CC1=O` (centres undefined), the TGI is 66.4 µM with NCI-H226 lung; greater than 100 µM with HOP-62 NSCLC; 32.4 µM in the assay with UACC-62 melanoma; 31 µM in the assay with SF-539 CNS; 31.8 µM in the assay on SN12C renal; 31.5 µM in the assay with SK-MEL-28 melanoma. Besides, the TGI in the assay on ACHN renal was 31.9 µM; in the assay on RPMI-8226 leukemia, 93.2 µM; in the assay with HCT-15 colon, 46.1 µM.

For `CCOc1ccc2nc(NC(=O)C(=O)C(c3cnc4ccccc4n3)[N+](=O)[O-])sc2c1` (centres undefined), the TGI in the assay with NCI-H226 lung, in the assay with HOP-62 NSCLC, in the assay with UACC-62 melanoma, with SF-539 CNS, in the assay with SN12C renal and in the assay with ACHN renal was greater than 100 µM throughout. The TGI in the assay on EKVX NSCLC, in the assay on RPMI-8226 leukemia and with HCT-15 colon was greater than 100 µM each time.

As for `N#C/C(=C\c1ccc(Br)cc1)n1nnc2ccc(F)cc21`, the GI50 with NCI-H226 lung is 1.67 µM; in the assay on HOP-62 NSCLC it was 2.33 µM; in the assay on UACC-62 melanoma, 0.713 µM; in the assay on SF-539 CNS, 1.26 µM; with SN12C renal it was 1.72 µM; in the assay on SK-MEL-28 melanoma it was 1.29 µM. The values for the GI50 in the assay on ACHN renal, with RPMI-8226 leukemia and with HCT-15 colon were 0.671 µM, 0.841 µM and 0.353 µM, respectively. Further, the TGI is 4.03 µM in the assay on NCI-H226 lung; 7.52 µM in the assay with HOP-62 NSCLC; 2.71 µM in the assay with UACC-62 melanoma; 2.94 µM in the assay on SF-539 CNS; 4.37 µM in the assay on SN12C renal; 3.25 µM in the assay on SK-MEL-28 melanoma. Further, the TGI worked out at 2.06 µM with ACHN renal, 6.96 µM with RPMI-8226 leukemia and 1.78 µM in the assay with HCT-15 colon.

As to `O=c1cccccc1[O-].O=c1cccccc1[O-].O=c1cccccc1[O-].[La+3]`, the TGI in the assay on NCI-H226 lung was 99 µM; in the assay on HOP-62 NSCLC it was 78.5 µM; with UACC-62 melanoma, 52 µM; in the assay on SF-539 CNS, 38 µM; in the assay with SN12C renal it was greater than 100 µM; in the assay on ACHN renal, greater than 100 µM. In addition, the TGI with EKVX NSCLC, in the assay on RPMI-8226 leukemia and in the assay with HCT-15 colon was greater than 100 µM each time. In addition, the GI50 with HOP-62 NSCLC is 31.4 µM; with SF-539 CNS, 5.62 µM; in the assay on SN12C renal, 22.3 µM.

`O=c1c(O)c(-c2cc(O)c(O)c(O)c2)oc2cc(O)cc(O)c12`: the TGI in the assay with NCI-H226 lung is 57.1 µM; in the assay with HOP-62 NSCLC it was 41.4 µM; in the assay on UACC-62 melanoma, greater than 100 µM; in the assay on SF-539 CNS, greater than 100 µM; in the assay with SN12C renal, […]; in the assay on SK-MEL-28 melanoma, greater than 100 µM. Further, the TGI is greater than 100 µM with ACHN renal, greater than 100 µM in the assay with RPMI-8226 leukemia and 71.8 µM in the assay on HCT-15 colon.

In the case of `N#CC1CC2(CCN1C(=O)c1ccccc1)OCCO2` (centres undefined), the TGI with NCI-H226 lung, with HOP-62 NSCLC, in the assay with UACC-62 melanoma, in the assay with SF-539 CNS, in the assay with SN12C renal and in the assay with ACHN renal was greater than 100 µM each time. The TGI with EKVX NSCLC, in the assay on RPMI-8226 leukemia and with HCT-15 colon was greater than 100 µM each time.

As to `CN(C)c1ccc(/C=C/c2cc[n+](C)c(/C=C/c3ccc(N(C)C)cc3)c2)cc1`, the GI50 with NCI-H226 lung was 0.271 µM; in the assay with HOP-62 NSCLC, 0.345 µM; with UACC-62 melanoma, 0.357 µM; with SF-539 CNS, 0.393 µM; with SN12C renal it was 0.273 µM; with SK-MEL-28 melanoma it was 0.667 µM. Further, the GI50 in the assay with ACHN renal was 0.401 µM; with RPMI-8226 leukemia, 0.123 µM; in the assay with HCT-15 colon, 0.904 µM. Besides, the TGI with NCI-H226 lung worked out at 5.43 µM; in the assay on HOP-62 NSCLC, 2.31 µM; in the assay with UACC-62 melanoma it was 1.68 µM; in the assay on SF-539 CNS, 3.01 µM; with SN12C renal, 1.15 µM; with SK-MEL-28 melanoma it was 2.7 µM. Further, the TGI in the assay on ACHN renal was found to be 2.4 µM; with RPMI-8226 leukemia, 0.675 µM; in the assay on HCT-15 colon, 9.74 µM.
